According to ChEMBL document CHEMBL3351812, “Discovery and SAR of a novel series of metabotropic glutamate receptor 5 positive allosteric modulators with high ligand efficiency” (Bioorg Med Chem Lett, 2014):
Calls of active or inactive are those of the source. The rule behind the calls is not given here.

Experiments:
[1] = target: Metabotropic glutamate receptor 5 (Rattus norvegicus, UniProt P31424); assay: (§1) Positive allosteric modulation of rat mGlu5 receptor expressed in HEK293 cells; format: cell-based
Chain of Metabotropic glutamate receptor 5 (P31424 whole entry): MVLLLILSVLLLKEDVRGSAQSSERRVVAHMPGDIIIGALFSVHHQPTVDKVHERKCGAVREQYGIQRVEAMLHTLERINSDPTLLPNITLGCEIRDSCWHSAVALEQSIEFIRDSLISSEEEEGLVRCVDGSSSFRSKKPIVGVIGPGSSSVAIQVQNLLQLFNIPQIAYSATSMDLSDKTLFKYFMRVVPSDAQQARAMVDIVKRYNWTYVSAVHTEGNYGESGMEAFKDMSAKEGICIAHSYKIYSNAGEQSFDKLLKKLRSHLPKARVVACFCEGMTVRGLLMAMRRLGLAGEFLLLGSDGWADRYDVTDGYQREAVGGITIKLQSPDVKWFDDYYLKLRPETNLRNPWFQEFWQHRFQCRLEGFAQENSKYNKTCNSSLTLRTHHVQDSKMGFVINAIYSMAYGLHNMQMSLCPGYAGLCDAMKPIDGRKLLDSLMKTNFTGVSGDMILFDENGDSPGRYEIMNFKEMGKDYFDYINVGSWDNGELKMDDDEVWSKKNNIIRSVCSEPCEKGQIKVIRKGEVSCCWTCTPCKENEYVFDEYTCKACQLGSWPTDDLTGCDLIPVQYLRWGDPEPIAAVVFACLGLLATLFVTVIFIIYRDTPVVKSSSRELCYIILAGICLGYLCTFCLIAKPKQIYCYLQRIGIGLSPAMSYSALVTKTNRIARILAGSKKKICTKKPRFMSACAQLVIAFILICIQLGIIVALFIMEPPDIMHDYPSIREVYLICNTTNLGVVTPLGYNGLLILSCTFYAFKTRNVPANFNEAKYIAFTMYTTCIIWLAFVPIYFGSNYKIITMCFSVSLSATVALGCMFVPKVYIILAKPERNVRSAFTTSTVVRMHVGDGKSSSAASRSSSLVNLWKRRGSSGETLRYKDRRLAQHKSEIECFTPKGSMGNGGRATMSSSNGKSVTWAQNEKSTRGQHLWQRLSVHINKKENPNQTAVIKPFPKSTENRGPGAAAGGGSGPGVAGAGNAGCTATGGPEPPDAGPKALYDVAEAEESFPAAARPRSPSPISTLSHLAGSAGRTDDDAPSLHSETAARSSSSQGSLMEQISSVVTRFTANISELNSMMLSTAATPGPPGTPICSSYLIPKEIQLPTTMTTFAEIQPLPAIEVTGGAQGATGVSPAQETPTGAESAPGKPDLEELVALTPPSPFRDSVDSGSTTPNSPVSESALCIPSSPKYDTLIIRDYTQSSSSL

[2] = target: Metabotropic glutamate receptor 5 (Rattus norvegicus) (UniProt P31424); assay: Positive allosteric modulation of rat mGlu5 receptor expressed in HEK293 cells relative to glutamate; format: cell-based; set-up: concentration or dose not given beside the values
Chain of Metabotropic glutamate receptor 5 (Rattus norvegicus) (P31424 21-1203 limits assumed): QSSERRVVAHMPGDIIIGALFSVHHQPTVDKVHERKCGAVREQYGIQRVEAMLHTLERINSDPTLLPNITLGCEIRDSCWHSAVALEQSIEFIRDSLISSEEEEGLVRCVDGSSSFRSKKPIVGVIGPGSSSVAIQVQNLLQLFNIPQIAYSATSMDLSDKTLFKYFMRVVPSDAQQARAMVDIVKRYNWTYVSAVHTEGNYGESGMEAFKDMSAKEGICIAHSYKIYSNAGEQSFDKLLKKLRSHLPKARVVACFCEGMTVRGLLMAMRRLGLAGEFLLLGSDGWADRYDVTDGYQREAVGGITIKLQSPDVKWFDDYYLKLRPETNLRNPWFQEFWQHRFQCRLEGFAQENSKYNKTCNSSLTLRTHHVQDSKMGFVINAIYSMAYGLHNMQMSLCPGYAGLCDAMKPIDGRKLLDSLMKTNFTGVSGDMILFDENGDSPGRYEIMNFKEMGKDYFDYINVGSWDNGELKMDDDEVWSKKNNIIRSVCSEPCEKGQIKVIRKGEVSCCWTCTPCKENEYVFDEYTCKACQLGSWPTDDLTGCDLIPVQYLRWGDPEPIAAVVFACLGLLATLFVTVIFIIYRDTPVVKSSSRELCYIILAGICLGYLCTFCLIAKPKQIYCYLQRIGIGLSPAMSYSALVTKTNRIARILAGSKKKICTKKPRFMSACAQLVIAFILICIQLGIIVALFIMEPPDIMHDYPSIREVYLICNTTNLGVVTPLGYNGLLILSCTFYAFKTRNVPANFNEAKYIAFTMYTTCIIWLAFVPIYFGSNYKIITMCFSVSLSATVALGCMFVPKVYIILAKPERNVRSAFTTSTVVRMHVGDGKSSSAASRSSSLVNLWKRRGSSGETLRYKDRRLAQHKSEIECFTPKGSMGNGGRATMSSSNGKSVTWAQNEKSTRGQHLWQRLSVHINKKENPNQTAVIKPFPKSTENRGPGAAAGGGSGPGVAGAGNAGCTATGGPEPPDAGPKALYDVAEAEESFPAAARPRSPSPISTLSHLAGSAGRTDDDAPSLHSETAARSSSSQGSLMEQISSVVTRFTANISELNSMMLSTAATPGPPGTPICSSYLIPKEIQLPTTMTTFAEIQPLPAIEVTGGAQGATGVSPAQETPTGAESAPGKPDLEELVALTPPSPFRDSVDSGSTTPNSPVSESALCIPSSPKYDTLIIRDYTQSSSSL

[3] = (§2) Fraction unbound in human plasma; format: ADME, cell-free
[4] = (§3) Fraction unbound in rat plasma; format: ADME, cell-free
[5] = target: Metabotropic glutamate receptor 1 (Homo sapiens) (UniProt Q13255); assay: Positive allosteric modulation of human mGlu1 receptor
[6] = target: Metabotropic glutamate receptor 7 (Rattus norvegicus) (UniProt P35400); assay: Positive allosteric modulation of rat mGlu7 receptor
[7] = target: Metabotropic glutamate receptor 8 (Rattus norvegicus) (UniProt P70579); assay: Positive allosteric modulation of rat mGlu8 receptor
[8] = target: T1, Cytochrome P450 1A2 (Homo sapiens, UniProt P05177); assay: Inhibition of CYP1A2 (unknown origin); format: ADME
T1 sequence (P05177 whole entry): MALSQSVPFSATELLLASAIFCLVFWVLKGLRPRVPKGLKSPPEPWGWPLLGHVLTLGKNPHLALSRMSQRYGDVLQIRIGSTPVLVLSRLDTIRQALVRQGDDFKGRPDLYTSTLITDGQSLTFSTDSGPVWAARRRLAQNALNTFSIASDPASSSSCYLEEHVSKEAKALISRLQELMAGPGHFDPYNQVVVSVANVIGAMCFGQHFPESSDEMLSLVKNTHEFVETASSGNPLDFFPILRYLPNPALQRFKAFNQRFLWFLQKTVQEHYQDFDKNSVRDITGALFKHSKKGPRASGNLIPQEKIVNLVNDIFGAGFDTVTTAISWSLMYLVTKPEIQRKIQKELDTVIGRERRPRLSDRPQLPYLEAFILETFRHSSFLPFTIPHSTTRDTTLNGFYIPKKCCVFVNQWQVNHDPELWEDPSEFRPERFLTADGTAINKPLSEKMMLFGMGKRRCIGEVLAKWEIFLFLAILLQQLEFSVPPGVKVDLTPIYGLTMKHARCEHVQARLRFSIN

[9] = target: Cytochrome P450 2C9 (Homo sapiens, UniProt P11712); assay: Inhibition of CYP2C9 (unknown origin); format: ADME
[10] = target: Cytochrome P450 3A4 (Homo sapiens, UniProt P08684); assay: Inhibition of CYP3A4 (unknown origin); format: ADME
[11] = target: Metabotropic glutamate receptor 2 (Homo sapiens) (UniProt Q14416); assay: Positive allosteric modulation of human mGlu2 receptor
Chain of Metabotropic glutamate receptor 2 (Homo sapiens) (Q14416 19-872 limits assumed): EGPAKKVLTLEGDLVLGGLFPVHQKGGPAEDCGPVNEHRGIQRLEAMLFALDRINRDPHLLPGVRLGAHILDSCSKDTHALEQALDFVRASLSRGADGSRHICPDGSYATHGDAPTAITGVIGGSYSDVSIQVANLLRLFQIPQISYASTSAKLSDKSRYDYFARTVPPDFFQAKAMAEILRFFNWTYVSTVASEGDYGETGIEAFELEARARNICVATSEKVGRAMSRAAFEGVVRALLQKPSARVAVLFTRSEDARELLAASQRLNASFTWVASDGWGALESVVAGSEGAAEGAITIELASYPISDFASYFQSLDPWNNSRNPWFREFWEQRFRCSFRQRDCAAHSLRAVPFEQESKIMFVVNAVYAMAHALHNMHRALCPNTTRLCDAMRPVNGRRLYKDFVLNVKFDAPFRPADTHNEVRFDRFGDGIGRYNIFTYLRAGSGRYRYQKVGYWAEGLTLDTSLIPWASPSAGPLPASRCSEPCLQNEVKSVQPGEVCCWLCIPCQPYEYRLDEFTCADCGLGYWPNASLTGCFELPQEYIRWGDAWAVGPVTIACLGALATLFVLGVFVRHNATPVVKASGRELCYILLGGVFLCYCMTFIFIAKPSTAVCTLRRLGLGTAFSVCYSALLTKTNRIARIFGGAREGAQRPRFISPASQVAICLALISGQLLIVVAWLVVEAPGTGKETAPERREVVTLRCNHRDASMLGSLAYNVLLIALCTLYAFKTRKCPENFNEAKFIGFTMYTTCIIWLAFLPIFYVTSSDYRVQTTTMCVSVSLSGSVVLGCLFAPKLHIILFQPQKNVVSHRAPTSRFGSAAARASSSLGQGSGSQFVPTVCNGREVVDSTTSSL

[12] = target: Metabotropic glutamate receptor 6 (Homo sapiens) (UniProt O15303); assay: Positive allosteric modulation of human mGlu6 receptor
Chain of Metabotropic glutamate receptor 6 (Homo sapiens) (O15303 whole entry): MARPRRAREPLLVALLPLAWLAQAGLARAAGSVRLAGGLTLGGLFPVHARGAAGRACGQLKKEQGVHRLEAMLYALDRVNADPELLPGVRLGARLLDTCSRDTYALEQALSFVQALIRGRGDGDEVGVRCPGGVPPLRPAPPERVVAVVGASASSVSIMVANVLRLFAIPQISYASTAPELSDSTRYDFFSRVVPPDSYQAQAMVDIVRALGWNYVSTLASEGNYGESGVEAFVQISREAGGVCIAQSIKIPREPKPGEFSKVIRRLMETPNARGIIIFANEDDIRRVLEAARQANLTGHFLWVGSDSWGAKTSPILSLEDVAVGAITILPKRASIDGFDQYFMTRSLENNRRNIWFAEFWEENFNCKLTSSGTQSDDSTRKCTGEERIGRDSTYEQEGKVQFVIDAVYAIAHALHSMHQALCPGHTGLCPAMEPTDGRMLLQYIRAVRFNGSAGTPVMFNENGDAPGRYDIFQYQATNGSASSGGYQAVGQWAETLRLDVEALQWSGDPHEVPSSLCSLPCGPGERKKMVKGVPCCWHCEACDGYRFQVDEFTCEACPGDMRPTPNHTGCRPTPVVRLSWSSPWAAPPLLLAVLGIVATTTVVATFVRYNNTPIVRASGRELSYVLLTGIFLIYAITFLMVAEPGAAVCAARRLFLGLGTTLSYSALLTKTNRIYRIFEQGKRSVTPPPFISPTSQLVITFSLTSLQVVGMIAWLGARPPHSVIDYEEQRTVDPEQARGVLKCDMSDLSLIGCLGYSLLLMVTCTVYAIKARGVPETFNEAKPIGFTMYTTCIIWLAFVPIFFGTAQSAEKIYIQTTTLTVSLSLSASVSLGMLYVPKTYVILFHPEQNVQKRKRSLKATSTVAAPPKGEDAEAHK

[13] = target: Metabotropic glutamate receptor 7 (Homo sapiens) (UniProt Q14831); assay: Positive allosteric modulation of human mGlu7 receptor
[14] = tested on: Plasma; assay: Stability in rat plasma at 37 degC after 4 hrs; format: ADME, cell-free
[15] = target: Metabotropic glutamate receptor 3 (Homo sapiens) (UniProt Q14832); assay: Positive allosteric modulation of human mGlu3 receptor
[16] = target: Metabotropic glutamate receptor 2 (Rattus norvegicus) (UniProt P31421); assay: Positive allosteric modulation of rat mGlu2 receptor
[17] = target: Cytochrome P450 2D6 (Homo sapiens, UniProt P10635); assay: Inhibition of CYP2D6 (unknown origin); format: ADME
[18] = target: Metabotropic glutamate receptor 1 (Rattus norvegicus) (UniProt P23385); assay: Positive allosteric modulation of rat mGlu1 receptor
[19] = tested on: Plasma; assay: Stability in human plasma at 37 degC after 4 hrs; format: ADME, cell-free
[20] = target: Metabotropic glutamate receptor 6 (Rattus norvegicus) (UniProt P35349); assay: Positive allosteric modulation of rat mGlu6 receptor
Chain of Metabotropic glutamate receptor 6 (Rattus norvegicus) (P35349 whole entry): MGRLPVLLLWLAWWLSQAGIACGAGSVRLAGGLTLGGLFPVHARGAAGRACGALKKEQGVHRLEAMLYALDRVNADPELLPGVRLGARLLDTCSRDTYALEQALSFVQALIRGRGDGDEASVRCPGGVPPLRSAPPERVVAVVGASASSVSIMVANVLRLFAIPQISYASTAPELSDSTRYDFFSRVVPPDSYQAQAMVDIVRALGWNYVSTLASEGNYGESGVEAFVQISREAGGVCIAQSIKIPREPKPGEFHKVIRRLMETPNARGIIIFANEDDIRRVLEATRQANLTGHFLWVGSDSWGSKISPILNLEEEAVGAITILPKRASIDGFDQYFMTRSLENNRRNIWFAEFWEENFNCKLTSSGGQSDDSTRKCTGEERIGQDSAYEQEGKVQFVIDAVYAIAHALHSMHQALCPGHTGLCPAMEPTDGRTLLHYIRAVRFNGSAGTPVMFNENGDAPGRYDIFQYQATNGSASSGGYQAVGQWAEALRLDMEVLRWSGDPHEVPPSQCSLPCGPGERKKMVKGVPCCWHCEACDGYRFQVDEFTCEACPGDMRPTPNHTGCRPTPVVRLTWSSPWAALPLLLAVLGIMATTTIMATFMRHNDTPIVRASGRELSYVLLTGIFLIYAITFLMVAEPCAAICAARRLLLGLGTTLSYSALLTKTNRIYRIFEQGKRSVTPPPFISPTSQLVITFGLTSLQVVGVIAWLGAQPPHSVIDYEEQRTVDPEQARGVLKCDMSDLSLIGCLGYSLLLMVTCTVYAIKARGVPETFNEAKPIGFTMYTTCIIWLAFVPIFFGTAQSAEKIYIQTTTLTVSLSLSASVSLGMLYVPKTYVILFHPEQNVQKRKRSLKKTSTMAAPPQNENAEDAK

[21] = target: Metabotropic glutamate receptor 8 (Homo sapiens) (UniProt O00222); assay: Positive allosteric modulation of human mGlu8 receptor
[22] = target: Metabotropic glutamate receptor 3 (Rattus norvegicus) (UniProt P31422); assay: Positive allosteric modulation of rat mGlu3 receptor
[23] = target: Metabotropic glutamate receptor 5 (Rattus norvegicus) (UniProt P31424); assay: as §1; format: cell-based
[24] = tested on: Plasma; assay: as §2; format: ADME, cell-free
[25] = tested on: Plasma; assay: as §3; format: ADME, cell-free

Structure (SMILES): c1ccc(OCc2cc3n(n2)CCCC3N2CCOCC2)cc1 (stereo not drawn)
- EC50 [1]: 2.36 µM
- Activity [2]: 52%

Structure (SMILES): CC1(c2ccc(F)cc2)CCn2nc(COc3ccccc3)cc2C1=O (stereo not drawn)
- EC50 [1]: 0.228 µM
- Activity [2]: 58%

Structure (SMILES): CC1(C)CCn2nc(COc3ccccc3)cc2C1OCc1ccccc1 (stereo not drawn)
- EC50 [1]: 2.33 µM
- Activity [2]: 64%

Structure (SMILES): CC1(C)CCn2nc(COc3ccccc3)cc2C1O (stereo not drawn)
- EC50 [1]: 4.41 µM
- Activity [2]: 60%

Structure (SMILES): COc1ccc(CNC2CCCn3nc(COc4ccccc4)cc32)cc1 (stereo not drawn)
- EC50 [1]: 0.29 µM
- Activity [2]: 60%

Structure (SMILES): CC1CCn2nc(COc3ccccc3)cc2C1=O (stereo not drawn)
- EC50 [1]: 0.285 µM
- Activity [2]: 76%

Structure (SMILES): OC1(c2ccccc2)CCCn2nc(COc3ccccc3)cc21 (stereo not drawn)
- EC50 [1]: 1.2 µM
- Activity [2]: 49%

Structure (SMILES): O=C1c2cc(COc3ccccc3)nn2CCC1c1ccc(F)cc1 (stereo not drawn)
- EC50 [1]: 0.035 µM
- fraction unbound [3]: 0.008
- fraction unbound [4]: 0.032
- Activity [2]: 66%

Structure (SMILES): c1ccc(NC2CCCn3nc(COc4ccccc4)cc32)cc1 (stereo not drawn)
- EC50 [1]: 0.269 µM
- Activity [2]: 62%

Structure (SMILES): COc1ccccc1C1CCn2nc(COc3ccccc3)cc2C1=O (stereo not drawn)
- EC50 [1]: 0.043 µM
- Activity [2]: 68%

Structure (SMILES): Fc1cccc(CNC2CCCn3nc(COc4ccccc4)cc32)c1 (stereo not drawn)
- EC50 [1]: 0.275 µM
- Activity [2]: 75%

Structure (SMILES): O=C1CCCn2nc(COc3ccccc3)cc21
- Activity [5]: > 10 µM
- Activity [6]: > 10 µM
- Activity [7]: > 10 µM
- IC50 [8]: 6.2 µM
- EC50 [1]: 0.129 µM
- inhibition (INH) [9]: Active
- fraction unbound [3]: 0.23
- inhibition (INH) [10]: Active
- fraction unbound [4]: 0.21
- Activity [11]: > 10 µM
- Activity [12]: > 10 µM
- Activity [13]: > 10 µM
- Stability [14]: Stable
- Activity [2]: 66%
- Activity [15]: > 10 µM
- Activity [16]: > 10 µM
- inhibition (INH) [17]: Active
- Activity [18]: > 10 µM
- Stability [19]: Stable
- Activity [20]: > 10 µM
- Activity [21]: > 10 µM
- Activity [22]: > 10 µM

Structure (SMILES): CCCCC1(O)CCCn2nc(COc3ccccc3)cc21 (stereo not drawn)
- EC50 [1]: 1.82 µM
- Activity [2]: 44%

Structure (SMILES): CC1(C)CCn2nc(OCc3ccccc3)cc2C1=O
- EC50 [1]: 0.228 µM
- Activity [2]: 56%

Structure (SMILES): COC1CCCn2nc(COc3ccccc3)cc21 (stereo not drawn)
- EC50 [1]: 2.91 µM
- Activity [2]: 43%

Structure (SMILES): c1ccc(COC2CCCn3nc(COc4ccccc4)cc32)cc1 (stereo not drawn)
- EC50 [1]: 0.989 µM
- Activity [2]: 70%

Structure (SMILES): O=C1CCCn2nc(OCc3ccccc3)cc21
- Activity [23]: inactive

Structure (SMILES): Fc1ccc(CNC2CCCn3nc(COc4ccccc4)cc32)cc1 (stereo not drawn)
- EC50 [1]: 0.316 µM
- Activity [2]: 69%

Structure (SMILES): O=C1c2cc(OCc3ccccc3)nn2CCC1c1ccc(F)cc1 (stereo not drawn)
- EC50 [1]: 0.095 µM
- Activity [2]: 48%

Structure (SMILES): COc1ccccc1C1(C)CCn2nc(COc3ccccc3)cc2C1=O (stereo not drawn)
- EC50 [1]: 0.654 µM
- Activity [2]: 52%

Structure (SMILES): c1ccc(CNC2CCCn3nc(COc4ccccc4)cc32)cc1 (stereo not drawn)
- EC50 [1]: 0.632 µM
- Fu [24]: 0.02%
- Fu [25]: 0.03%
- Activity [2]: 74%

Structure (SMILES): O=C1c2cc(COc3ccccc3)nn2CCC1Cc1ccccc1 (stereo not drawn)
- EC50 [1]: 0.124 µM
- Activity [2]: 73%

Structure (SMILES): c1ccc(CNC2CCCn3nc(OCc4ccccc4)cc32)cc1 (stereo not drawn)
- EC50 [1]: 0.618 µM
- Activity [2]: 48%

Structure (SMILES): O=C1CCCc2nc(COc3ccccc3)sc21
- EC50 [1]: 0.441 µM
- Activity [2]: 65%

Structure (SMILES): c1ccc(OCc2cc3n(n2)CCCC3OCC2CC2)cc1 (stereo not drawn)
- EC50 [1]: 2.52 µM
- Activity [2]: 43%

Structure (SMILES): CC1CCn2nc(COc3ccccc3)cc2C1(C)O (stereo not drawn)
- EC50 [1]: 1.68 µM
- Activity [2]: 39%

Structure (SMILES): c1ccc(OCc2cc3n(n2)CCCC3NCc2cccnc2)cc1 (stereo not drawn)
- EC50 [1]: 2.84 µM
- Activity [2]: 59%

Structure (SMILES): FC1(F)CCCn2nc(COc3ccccc3)cc21
- EC50 [1]: 0.625 µM
- Activity [2]: 52%

Structure (SMILES): CC1(C)CCn2nc(COc3ccccc3)cc2C1=O
- IC50 [8]: 7.3 µM
- EC50 [1]: 0.086 µM
- fraction unbound [3]: 0.1
- fraction unbound [4]: 0.07
- Activity [2]: 70%

Structure (SMILES): c1ccc(OCc2cc3n(n2)CCCC3NC2CC2)cc1 (stereo not drawn)
- EC50 [1]: 1.8 µM
- Activity [2]: 50%

Structure (SMILES): CC(C)N1CCN(C2CCCn3nc(COc4ccccc4)cc32)CC1 (stereo not drawn)
- EC50 [1]: 0.87 µM
- Activity [2]: 71%

Structure (SMILES): OC1CCCn2nc(COc3ccccc3)cc21 (stereo not drawn)
- EC50 [1]: 2.01 µM
- Activity [2]: 47%

Structure (SMILES): O=C1c2cc(COc3ccccc3)nn2CCC12CCCC2
- EC50 [1]: 0.048 µM
- Activity [2]: 60%

Structure (SMILES): Clc1ccc(CNC2CCCn3nc(COc4ccccc4)cc32)cc1 (stereo not drawn)
- EC50 [1]: 0.637 µM
- Activity [2]: 65%

Structure (SMILES): COC1c2cc(COc3ccccc3)nn2CCC1(C)C (stereo not drawn)
- EC50 [1]: 0.796 µM
- Activity [2]: 75%

Structure (SMILES): O=C1c2cc(COc3ccccc3)nn2CCC1(Cc1ccccc1)Cc1ccccc1
- EC50 [1]: > 10 µM
- Activity [2]: 37%

Structure (SMILES): CC1(C)CCn2nc(COc3ccccc3)cc2C1NCc1ccccc1 (stereo not drawn)
- EC50 [1]: 3.62 µM
- Activity [2]: 65%

Structure (SMILES): c1ccc(OCc2cc3n(n2)CCCC3NCc2ccncc2)cc1 (stereo not drawn)
- EC50 [1]: 2.57 µM
- Activity [2]: 68%

Structure (SMILES): NC1CCCn2nc(COc3ccccc3)cc21 (stereo not drawn)
- EC50 [1]: > 10 µM
- Activity [2]: 45%

Structure (SMILES): CN(Cc1ccccc1)C1CCCn2nc(COc3ccccc3)cc21 (stereo not drawn)
- EC50 [1]: 0.686 µM
- Activity [2]: 71%

Structure (SMILES): OC1(C(F)(F)F)CCCn2nc(COc3ccccc3)cc21 (stereo not drawn)
- EC50 [1]: 3.78 µM
- Activity [2]: 54%
